This is an account of results in patent US8829196B2, “TRPA1 antagonists” (Merck Sharp & Dohme Corp., priority 2009, dated 2014).

This test deals with T1, human TRPA1 (Homo sapiens, UniProt O75762, K186N/R3C/R58T).
T1 construct: host or cells: HEK293 FlpIn
In words: High Throughput Calcium Imaging Assay (FLIPR, cinnamaldehyde-activated Ca2+ influx). Type of test: cell-based. Conditions: HEK293 FlpIn cells stably expressing human TRPA1; EC60 cinnamaldehyde; Fluo-4AM; read-out: TRPA1 hFLIPR IC50. An excerpt:
The assay was dependent on detecting the change in intracellular Ca2+ concentration following activation of the channel in cells stably expressing the TRPA1 channel. Activation of the TRPA1 channel was followed by Ca2+ influx. Ca2+ increase was quantified through the use of a fluorescent Ca2+ indicator that was loaded into the cells. Compounds which inhibited Ca2+ increase were considered “hits” warranting additional examination.
The HEK293 FlpIn cell line (Invitrogen) was stably transfected as per the manufacturers guidelines with a construct encoding a human TRPA1 protein with the amino acid sequence depicted in SEQ ID NO: 1. The resulting cell line was maintained in the growth medium recommended by the manufacturer and supplemented with 100 ug/mL Hygromycin B to promote the selection of cells stably expressing the TRPA1 channel. After growing to confluency, cells were plated at a density of 24,000 cells/well in 384 well Black/Clear Microtest plates (Falcon) in the recommended growth medium supplemented with hygromycin, and allowed to grow for 20-24 hours resulting in a ˜90% confluent monolayer of cells. Cells were then loaded with assay buffer containing the Ca2+ dye Fluo-4AM (Invitrogen) to a final concentration of 4 uM, and incubated for 60 minutes at room temperature in the dark. The assay buffer consisted of 138 mM NaCl, 5.33 mM KCl, 1.26 mM CaCl2, 0.49 mM MgCl2, 0.41 mM MgSO4 5.56 mM D-glucose, 0.44 mM KH2PO4, 0.34 mM Na2HPO4, 20 mM HEPES, 2.5 mM Probenecid, and 4% TR-40; pH 7.8. Following 1 hour dye loading, cells were assayed using the FLIPR TETRA (Molecular Devices) which permits excitation of the Fluo-4AM dye, and subsequent recording of emission spectra according to the manufacturer's guidelines. A total of 5 baseline readings were acquired prior to each reagent addition, after which, readings were acquired at a rate of 1 every 3 seconds for 195 seconds, and then 1 every 10 seconds for an additional 420 seconds. During the assay, reagents were added and mixed after each addition by the FLIPR TETRA pippetor. EC60 concentration of Cinnamaldehyde was determined before the screening assay, and used as the activating concentration henceforth. For the screening assay, the baseline reading was taken, followed by addition of 10 uL of a compound stock at six-times the final concentration, followed by 615 seconds of read time as previously described. Following baseline readings, 10 μl, of six-times final concentration Cinnamaldehyde was added to each well, achieving a final concentration of 10 uM compound, and on average, 12 uM Cinnamaldehyde (depending on the EC60 derived during that experiment). Following addition of Cinnamaldehyde, readings were taken for 615 seconds as previously described. Negative controls consisted of HEK293 FlpIn TRPA1 cells exposed to compound vehicle and then Cinnamaldehyde. […] “Hits” were identified as compounds which inhibited the fluorescence response in the presence of Cinnamaldehyde as compared to the negative and positive controls. IC50 values were determined for compounds defined as “hits” which reached fully inhibition. This cell-based fluorescence assay was used to determine Ca2+ influx through the channel in the presence of compound at the following concentrations: 10 uM, 3.33 uM, 1.11 uM, 0.37 uM, 0.12 uM, 0.041 uM, 0.014 uM, 0.0046 uM, 0.0015 uM, and 0.00051 uM.

T1 sequence (O75762 whole entry R3C/R58T/K186N): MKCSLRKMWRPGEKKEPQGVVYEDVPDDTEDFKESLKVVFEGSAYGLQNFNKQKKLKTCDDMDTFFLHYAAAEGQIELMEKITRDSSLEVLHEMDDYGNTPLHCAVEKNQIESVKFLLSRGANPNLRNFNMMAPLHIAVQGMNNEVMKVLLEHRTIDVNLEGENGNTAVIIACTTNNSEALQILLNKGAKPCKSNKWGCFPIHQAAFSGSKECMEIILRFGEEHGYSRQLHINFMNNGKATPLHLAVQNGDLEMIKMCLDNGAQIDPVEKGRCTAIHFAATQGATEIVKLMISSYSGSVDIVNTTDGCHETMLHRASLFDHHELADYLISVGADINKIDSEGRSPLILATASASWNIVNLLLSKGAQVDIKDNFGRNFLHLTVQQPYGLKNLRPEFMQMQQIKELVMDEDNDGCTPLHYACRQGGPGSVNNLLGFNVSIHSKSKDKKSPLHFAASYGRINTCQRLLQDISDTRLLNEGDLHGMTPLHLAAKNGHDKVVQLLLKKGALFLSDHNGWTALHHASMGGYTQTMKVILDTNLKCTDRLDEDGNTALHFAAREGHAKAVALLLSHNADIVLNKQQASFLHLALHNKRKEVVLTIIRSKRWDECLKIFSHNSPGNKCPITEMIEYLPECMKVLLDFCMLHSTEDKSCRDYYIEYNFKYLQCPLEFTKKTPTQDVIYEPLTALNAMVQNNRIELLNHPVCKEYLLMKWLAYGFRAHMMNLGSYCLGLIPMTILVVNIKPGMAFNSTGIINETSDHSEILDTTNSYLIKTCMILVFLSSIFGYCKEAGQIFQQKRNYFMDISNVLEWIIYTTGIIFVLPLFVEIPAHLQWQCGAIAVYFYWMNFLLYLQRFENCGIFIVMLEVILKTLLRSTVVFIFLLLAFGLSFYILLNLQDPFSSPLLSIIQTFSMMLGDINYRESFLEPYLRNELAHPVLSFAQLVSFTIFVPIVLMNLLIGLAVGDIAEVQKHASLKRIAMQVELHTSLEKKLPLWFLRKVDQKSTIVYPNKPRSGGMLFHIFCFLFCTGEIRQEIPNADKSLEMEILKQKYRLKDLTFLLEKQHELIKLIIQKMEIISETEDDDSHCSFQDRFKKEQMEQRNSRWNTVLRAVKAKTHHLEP

In general, IC50 refers to the concentration needed to halve the response being measured. As to `COC[C@@H]1CCC(Nc2ccc(F)cc2)C2(O)CCCO[C@H]12` (stereo in doubt) [(4aR,5S)-5-[(4-fluorophenyl)amino]-8-(methoxymethyl)hexahydro-2H-chromen-4a(5H)-ol], the 50% inhibitory concentration (IC50) is 35 nM. Turning to `O[C@@]12CCCO[C@H]1CCC[C@@H]2Nc1ccc(F)cc1` (stereo in doubt) [(4aR,5S,8aS)-5-[(4-fluorophenyl)amino]hexahydro-2H-chromen-4a(5H)-ol], the half-maximal inhibitory concentration (IC50) came to 850 nM.

As for `O[C@]12CCCC[C@@H]1CCC[C@H]2Nc1ccccc1` [(4R,4aR,8aR)-4-(phenylamino)octahydronaphthalen-4a(2H)-ol], the IC50 amounted to 54 nM.

For the compound `O[C@]12CCCC[C@@H]1CCC[C@H]2Nc1ccc(F)cc1` [(4aR,8aR)-4-[(4-fluorophenyl)amino]octahydronaphthalen-4a(2H)-ol], the IC50 turned out to be 19 nM. Under `O[C@]12CCCO[C@H]1CCC[C@H]2Nc1ccc(F)cc1` [(4aS,5R,8aS)-5-[(4-fluorophenyl)amino]hexahydro-2H-chromen-4a(5H)-ol] stands 520 nM.
